Usually IC50 stands for the concentration at which inhibition is half-maximal.

Drawing on patent publication US20260226048A1, “MULTI-CYCLIC IRAK AND FLT3 INHIBITING COMPOUNDS AND USES THEREOF” (CHILDREN'S HOSPITAL MEDICAL CENTER, priority 2023, published 2026), this text covers IC50 for 17 molecules.

The target in one experiment is T1, IRAK4 (Homo sapiens, UniProt Q9NWZ3).
T1 sequence (Q9NWZ3 1-460): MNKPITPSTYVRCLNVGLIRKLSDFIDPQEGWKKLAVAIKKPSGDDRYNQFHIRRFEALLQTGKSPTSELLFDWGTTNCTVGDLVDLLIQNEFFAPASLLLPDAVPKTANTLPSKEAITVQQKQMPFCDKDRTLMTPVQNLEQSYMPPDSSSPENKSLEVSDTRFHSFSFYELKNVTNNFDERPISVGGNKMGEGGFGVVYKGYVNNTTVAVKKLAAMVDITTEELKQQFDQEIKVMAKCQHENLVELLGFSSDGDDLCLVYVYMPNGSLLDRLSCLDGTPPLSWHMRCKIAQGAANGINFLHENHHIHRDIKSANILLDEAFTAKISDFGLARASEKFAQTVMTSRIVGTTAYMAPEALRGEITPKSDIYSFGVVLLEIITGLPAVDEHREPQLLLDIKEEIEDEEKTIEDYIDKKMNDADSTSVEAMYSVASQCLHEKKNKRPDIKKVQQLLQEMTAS
The experiment is described as follows: Reaction Biology NanoBRET target engagement assay in HEK-293 cells, IRAK4. The format is cell-based. The conditions noted are these: live HEK-293 cells transfected with Kinase-NanoLuc fusion, 1 hour. The text has this: (§1) The NanoBRET assay measures kinase engagement in real time in the context of the intact cell. Unlike the previously described biochemical kinase assay methodology in Example 33, the NanoBRET assay measures the binding and activity characteristics under equilibrium conditions using full-length kinases in the presence of cellular concentrations of ATP in live, uncompromised cells. As such, the assay provides a more relevant assessment of kinase potency and selectivity that would be expected to be observed in the native cellular environment, where potency is often considerably lower than that observed in the isolated biochemical assays (Vasta, J. D. et al., (2018) Cell Chem. Biol. 25, 206-214). The assay uses a Kinase-NanoLuc® fusion vector expressing a kinase protein to which a luciferase tag has been added, a cell-permeant fluorescent NanoBRET™ tracer, a NanoLuc® substrate, and an extracellular NanoLuc® inhibitor. Upon expression of the luciferase-tagged kinase, cells will produce a strong BRET signal only in the presence of the NanoBRET™ tracer. The extracellular NanoLuc® inhibitor ensures that the BRET signal observed emanates only from live cells. Because the BRET signal has tight distance constraints, addition of the test compound will decrease the BRET signal if the compound competes with the NanoBRET™ tracer for binding to the kinase domain. Under the appropriate tracer conditions established by the manufacturer, quantitative intracellular affinity and relative potency can then be determined using Mass Action model equations.
(§2) HEK-293 cells were purchased from ATCC. FuGENEHD Transfection Reagent, Kinase-NanoLucfusion plasmids, Transfection Carrier DNA, NanoBRETTracers and dilution buffer, NanoBRETNano-Glo Substrate, Extracellular NanoLucInhibitor were obtained from Promega.
(§3) Assays were conducted following Promega assay protocol with some modifications. HEK-293 Cells were transiently transfected with Kinase-NanoLucFusion Vector DNA by FuGENEHD Transfection Reagent. Testing compounds were delivered into 384 well assay plate by Echo 550 (LabcyteInc, Sunnyvale, CA). Transfected cells were harvested and mixed with NanoBRETTracer Reagent and dispensed into 384 well plates and incubated at 37° C. in 5% C02 cell culture incubator for 1 hour. The NanoBRETNano-Glo Substrate plus Extracellular NanoLucInhibitor Solution were added into the wells of the assay plate and incubated for 2-3 minutes at room temperature. The donor emission wavelength (460 nm) and acceptor emission wavelength (600 nm) were measured in the EnVisionplate reader. The BRET Ratios were calculated. BRET Ratio=[(Acceptor sample÷Donor sample)−(Acceptor no-tracer control÷Donor no-tracer control)]. The IC50 values of compounds were calculated with Prism GraphPad program.
(§4) • 1). Cultivate HEK-293 cells (70-80% confluence) appropriately prior to assay. Trypsinize and collect HEK-293 cells. • 2). Prepare lipid: DNA complexes as follows: • a. Prepare a 10 μg/ml solution of DNA in Opti-MEM without serum that consists of the following ratios of carrier DNA and DNA encoding NanoLuc® fusion. 9.0 μg/mL of Transfection Carrier DNA, 1.0 μg/mL of NanoLuc fusion vector DNA and 1 mL of Opti-MEM without phenol red. Mix thoroughly. • b. Add 30 μl of FuGENE HD Transfection Reagent into each milliliter of DNA mixture to form lipid: DNA complex. • c. Mix by inversion 10 times. • d. Incubate at ambient temperature for 20 minutes to allow complexes to form. • 3). In a sterile, conical tube, mix 1 part of lipid:DNA complex with 20 parts of HEK-293 cells in suspension. Mix gently by inversion 5 times. • 4). Dispense cells+lipid:DNA complex into a sterile tissue culture dish and incubate for 22-24 hours.
(§5) Each test compound is delivered from the compound source plate to the wells of 384-well white NBS plate by Echo 550.
(§6) 3. Preparation of Cells with NanoBRET™ Tracer Reagent • 1). […]
In general terms: Bioluminescence resonance energy transfer reports proximity on the nanometre scale.

In another experiment the target is T2, FLT3 (Homo sapiens, UniProt P36888).
T2 sequence (P36888 27-993): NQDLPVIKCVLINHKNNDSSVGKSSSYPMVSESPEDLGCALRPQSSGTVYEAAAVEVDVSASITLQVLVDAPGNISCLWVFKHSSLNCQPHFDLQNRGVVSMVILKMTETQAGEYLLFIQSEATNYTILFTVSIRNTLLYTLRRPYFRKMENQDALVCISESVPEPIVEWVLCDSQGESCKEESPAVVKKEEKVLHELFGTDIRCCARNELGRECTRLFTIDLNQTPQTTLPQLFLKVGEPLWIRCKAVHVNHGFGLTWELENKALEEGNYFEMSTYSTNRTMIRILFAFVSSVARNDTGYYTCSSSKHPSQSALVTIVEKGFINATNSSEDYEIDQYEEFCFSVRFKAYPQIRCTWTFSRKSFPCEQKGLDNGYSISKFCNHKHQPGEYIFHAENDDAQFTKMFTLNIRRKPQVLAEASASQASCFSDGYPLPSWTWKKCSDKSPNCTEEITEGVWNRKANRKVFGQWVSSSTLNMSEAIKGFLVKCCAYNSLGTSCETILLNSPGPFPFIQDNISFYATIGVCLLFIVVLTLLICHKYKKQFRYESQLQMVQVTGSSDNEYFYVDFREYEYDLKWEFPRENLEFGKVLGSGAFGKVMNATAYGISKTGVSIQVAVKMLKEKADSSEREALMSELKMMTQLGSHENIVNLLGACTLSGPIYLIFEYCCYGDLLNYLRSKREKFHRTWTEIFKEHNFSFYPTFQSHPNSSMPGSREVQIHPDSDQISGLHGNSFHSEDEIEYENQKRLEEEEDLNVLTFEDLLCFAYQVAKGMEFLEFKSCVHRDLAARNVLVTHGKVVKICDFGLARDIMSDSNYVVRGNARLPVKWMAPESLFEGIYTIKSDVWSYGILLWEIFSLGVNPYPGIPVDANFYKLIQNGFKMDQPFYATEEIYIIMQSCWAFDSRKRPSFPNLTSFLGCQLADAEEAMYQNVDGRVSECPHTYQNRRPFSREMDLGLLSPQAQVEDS
In words: Reaction Biology NanoBRET target engagement assay in HEK-293 cells, FLT3. The format is cell-based. As to conditions: live HEK-293 cells transfected with Kinase-NanoLuc fusion, 1 hour.
Excerpt: as §1, §2, §3, §4, §5, §6

Take `CC(O)(c1ccc2ncc(-c3ccnc(N[C@@H]4CCCNC4)n3)n2c1)C(F)(F)F` (single isomer, unassigned) [Compound 22a]: the figures for the IC50 against IRAK4 and against FLT3 were less than 0.5 nM and 38 nM, respectively.
In the case of `CC(O)(c1ccc2ncc(-c3ccnc(N[C@@H]4CCCNC4)n3)n2c1)C(F)(F)F` (single isomer, unassigned) [Compound 23a], the IC50 at IRAK4 was less than 0.5 nM; on FLT3, 3 nM.
The like results for `CC(O)(c1ccc2ncc(-c3ccnc(N[C@H]4CNCC[C@@H]4F)n3)n2c1)C(F)(F)F` (single isomer, unassigned) [Compound 25a] were, in that order, 2 nM and 40 nM.
`CC(O)(c1ccc2ncc(-c3cncc(N[C@@H]4CCCNC4)n3)n2c1)C(F)(F)F` (single isomer, unassigned) [Compound 28a]: the values for the IC50 on IRAK4 and on FLT3 were less than 0.5 nM and 2960 nM, respectively.
On to `CC(O)(c1ccc2ncc(-c3cncc(N[C@H]4CNCC[C@@H]4F)n3)n2c1)C(F)(F)F` (single isomer, unassigned) [Compound 31a], for which the IC50 at IRAK4 was less than 0.5 nM; at FLT3, 1810 nM.
`COc1cc2ncc(-c3nc(N[C@H]4CNCC[C@@H]4F)ncc3F)n2nc1C1CC1` [Compound 1a, 4-(6-cyclopropyl-7-methoxyimidazo[1,2-b]pyridazin-3-yl)-5-fluoro-N-((3S,4S)-4-fluoropiperidin-3-yl)pyrimidin-2-amine]: the figures for the IC50 against IRAK4 and at FLT3 were less than 0.5 nM and 1 nM, respectively.
For `FC(F)COc1cc2ncc(-c3ccnc(N[C@H]4CNCC[C@@H]4F)n3)n2nc1C1CC1` [Compound 4a, 4-(6-cyclopropyl-7-(2,2-difluoroethoxy)imidazo[1,2-b]pyridazin-3-yl)-N-((3 S,4S)-4-fluoropiperidin-3-yl)pyrimidin-2-amine], the IC50 is 0.8 nM against IRAK4 and 4 nM on FLT3.
The like results for `F[C@H]1CCNC[C@@H]1Nc1nccc(-c2cnc3cc(OC4CC4)c(C4CC4)nn23)n1` [Compound 12a, 4-(7-cyclopropoxy-6-cyclopropylimidazo[1,2-b]pyridazin-3-yl)-N-((3S,4S)-4-fluoropiperidin-3-yl)pyrimidin-2-amine] were, in that order, less than 0.5 nM and less than 0.5 nM.
As to `COc1cc2ncc(-c3nc(N[C@H]4CNCC[C@@H]4F)ncc3F)n2nc1C(C)(C)O` [Compound 45a, 2-(3-(5-fluoro-2-(((3S,4S)-4-fluoropiperidin-3-yl)amino)pyrimidin-4-yl)-7-methoxyimidazo[1,2-b]pyridazin-6-yl)propan-2-ol], the results for the IC50 against IRAK4 and on FLT3 were 3 nM and 44 nM, respectively.
The like results for `CC(C)(O)c1ccc2ncc(-c3nc(N[C@H]4CNCC[C@@H]4F)ncc3F)n2c1` [Compound 46a, 2-(3-(5-fluoro-2-(((3S,4S)-4-fluoropiperidin-3-yl)amino)pyrimidin-4-yl)imidazo[1,2-a]pyridin-6-yl)propan-2-ol] were, in that order, 4 nM and 102 nM.
As for `CC(C)(O)c1ccc2ncc(-c3nc(N[C@@H]4CCCNC4)ncc3F)n2c1` [Compound 48a, (R)-2-(3-(5-fluoro-2-(piperidin-3-ylamino)pyrimidin-4-yl)imidazo[1,2-a]pyridin-6-yl)propan-2-ol], the IC50 at IRAK4 amounted to 5 nM; against FLT3, 141 nM.
The like results for `COc1cc2ncc(-c3nc(N[C@H]4CNCC[C@@H]4F)ncc3F)n2nc1C1CC(F)(F)C1` [Compound 49a, 4-(6-(3,3-difluorocyclobutyl)-7-methoxyimidazo[1,2-b]pyridazin-3-yl)-5-fluoro-N-((3S,4S)-4-fluoropiperidin-3-yl)pyrimidin-2-amine] were, in that order, less than 0.5 nM and less than 0.5 nM.
The like results for `COc1cc2ncc(-c3ccnc(N[C@H]4CNCC[C@@H]4F)n3)n2nc1C1CCC1` [Compound 79a, 4-(6-cyclobutyl-7-methoxyimidazo[1,2-b]pyridazin-3-yl)-N-((3S,4S)-4-fluoropiperidin-3-yl)pyrimidin-2-amine] were, in that order, less than 0.5 nM and less than 0.5 nM.
For `COc1cc2ncc(-c3nc(N[C@H]4CNCC[C@@H]4F)ncc3F)n2nc1C1COC1` [Compound 92a, 5-fluoro-N-((3S,4S)-4-fluoropiperidin-3-yl)-4-(7-methoxy-6-(oxetan-3-yl)imidazo[1,2-b]pyridazin-3-yl)pyrimidin-2-amine], in that order: less than 0.5 nM and 4 nM.
On to `CC(C)(O)c1cn2c(-c3nc(N[C@H]4CNCC[C@@H]4F)ncc3F)cnc2cn1` [Compound 100a, 2-(3-(5-fluoro-2-(((3S,4S)-4-fluoropiperidin-3-yl)amino)pyrimidin-4-yl)imidazo[1,2-a]pyrazin-6-yl)propan-2-ol], for which the IC50 against IRAK4 turned out to be 8 nM; against FLT3, 4250 nM.
Consider `COc1cc2ncc(-c3nc(N[C@H]4CNC[C@@H]4F)ncc3F)n2nc1N1CCCS1(=O)=O` [Compound 111a, 2-(3-(5-fluoro-2-(((3S,4S)-4-fluoropyrrolidin-3-yl)amino)pyrimidin-4-yl)-7-methoxyimidazo[1,2-b]pyridazin-6-yl)isothiazolidine 1,1-dioxide], for which the IC50 at IRAK4 stood at 34 nM; at FLT3, 77 nM.
As to `COc1cc2ncc(-c3nc(N[C@H]4CNCC[C@@H]4F)ncc3F)n2nc1N1CCCS1(=O)=O` [Compound 112a, 2-(3-(5-fluoro-2-(((3S,4S)-4-fluoropiperidin-3-yl)amino)pyrimidin-4-yl)-7-methoxyimidazo[1,2-b]pyridazin-6-yl)isothiazolidine 1,1-dioxide], the IC50 against IRAK4 and on FLT3 was less than 0.5 nM throughout.
